Laboratory results from patent publication US11191293B2, “Nutritional composition and infant formula for promoting myelination of the brain” (NESTEC S.A., priority 2015, dated 2021).

Key:
[1] = tested on: brain myelination (myelin water fraction); experiment: Cross-sectional correlation of infant formula nutrient content with brain myelination (mcDESPOT MRI myelin water fraction); format: in vivo, human; conditions: formula-fed children up to 5 years of age; brain regions named per nutrient
Method: MRI (Magnetic Resonance Imaging): MRI brain scans of infants and children between 0 and 5 years were acquired using a white matter imaging technique. This technique provides a quantitative measure, the Myelin Water Fraction (MWF), which is a surrogate marker of myelin content in the brain. When mapped as a function of time across early childhood, myelination trajectories can be generated.
Infant formula composition: six infant formulas fed to infants participating in a study were analyzed for their composition/level of myelin-relevant nutrients.
Infants included in this study were drawn from a larger longitudinal study of normal brain and behavioral development: the Brown University Assessment of Myelination and Behavior Across Maturation (BAMBAM). To focus on neurotypical development, children with known potential risk factors for learning, neurologic, or psychiatric disorders were specifically excluded during recruitment and enrollment. Thus, children with in utero alcohol or illicit substance exposure, premature (<37 weeks gestation) or multiple birth, fetal ultrasound abnormalities, complicated pregnancy (e.g., preeclampsia), APGAR scores <8, NICU admission, neurological disorder (e.g., head injury, epilepsy), psychiatric or developmental disorders in the infant, parents or siblings (including maternal depression requiring medication) were excluded. Ongoing screenings, such as the MCAT for autism, or CBCL for behavioral problems, were further used to remove enrolled children with clinically concerning behaviors or overt medical conditions (such as autism spectrum disorders).
A combination of retrospective and prospective data were acquired from parents via detailed medical histories and parental interview on the type of infant formula used, percentage of breastfeeding to formula feeding, and length of exclusive breastfeeding. This information was updated at each study visit, which occurred approximately every 6 months for children under 2 years, and yearly for older children. Using this information, children were categorized into one of 2 groups: #1. Exclusively formula-fed; and #2. Exclusively breastfed for at least 90 days (3 months). Children who were fed a combination of breastmilk and formula within 3 months were excluded from our analysis. Infants within the exclusively formula-fed group were further sub-divided based on parental reports of the main infant formula used throughout the first 3 months. Main formula was defined as that given 90% of the time or more (in the case were parents used an alternate brand during vacation, for example).
Using these criteria, 94 exclusively formula-fed infants and young children were selected into group #1. These included 13 children who received formula #2; 28 who received formula #5; 8 who received formula #3; 39 who received formula #4; 5 who received formula #1 and 1 who received formula #6. A sample of 52 exclusively breast-fed infants were also selected and matched to the over formula-fed group with regards to mean age, gestation duration, birth weight, male:female ratio, ethnicity ratio, maternal education, family size, and number of languages spoken in the home (in addition to English).
Each infant was scanned using the mcDESPOT (multicomponent Driven Equilibrium Single Pulse Observation of T1 and T2) white matter imaging technique Deoni et al. (Magn. Reson. Med. 2008, 60:1372-1387), which provides a quantitative measure of the myelin water fraction (MWF)—a measure of myelin content—at each point throughout the brain. All infants were scanned during natural (i.e. non-sedated) sleep using acoustically-muffled mcDESPOT imaging protocols. Total imaging times ranged from 19 minutes for the youngest toddlers to 24 minutes for the older 4 year-old children.

[2] = tested on: neural progenitor cell (NPCs); experiment: Differentiation assay: quantification of neuronal and glial marker expression in monolayer NPC culture; format: cell-based, mouse; set-up: key: marker integrated density normalized to DAPI integrated density; conditions: 9 d culture; for astrocyte cell density: GFAP normalized to DAPI
Method: Generation of neural progenitor cell (NPCs) libraries: dissociation of E14 mouse neocortex E14 pup brains were harvested and placed in ice cold DPBS(1X)+10% Pen/Strep, then they were dissected using a dissecting microscope. From each pup, one brain hemisphere was placed in 2 ml of Neurobasal media/10% P/S/10X Hepes and another brain hemisphere was placed in another tube. The tissue from each tube was aseptically and manually dissociate into single cells, neurobasal complete medium was added and centrifuged at […] for 5 min. The tissue was then re-suspended in neurobasal complete media with GF and placed in a corning suspension culture dish 100 mm×20 mm (#430591). […] 24 well glass bottom plates (Mat Tek […]-1.0-13-F Case, glass bottom 24 well plates) were coated with poly-L-ornithin (Sigma P4957) and Fibronection (Sigma F1141) before use in the assay below. Cells were plated (10,000 cells per well) in Complete media with GF for 24 hours (500 ul per well). […] After 24 hours, it was ensured that cells were attached to the plate, then the medium was carefully removed. […] Note: medium contains no GF. […] The cells were culture for 9 d in media plus 2% Nu Serum, the medium was changed every 2 nd day. For fixation and subsequent immunohistochemical analysis the medium was removed, the cells were rinsed once with 1X PBS for 5 min, and fixed with 4% PFA in 1X PBS for 15 min at 4° C. The cells were then washed twice with 1X PBS for 5 min, left in 1X PBS, wrapped in foil and left overnight at 4C, or they were immediately primary antibody staining was carried out. PBS was removed and enough AB staining solution (1% Goat serum, 1xPBS, and 0.1% triton X) was added to cover the bottom, the block was kept at room temp for 1 hour. Primary antibody dilutions were made in appropriate amount of AB staining solution, 250 ul per well (the antibodies were only kept out on ice for a short time, mouse anti-MAP2 or TUJ1 1:500 (neuron marker), rabbit anti-GFAP(glial marker) 1:1000, chicken anti-Nestin CFP (EGFP antibody (progenitor cell marker)) 1:1000. AB staining solution was removed and a solution of primary antibodies was added to each chamber. The cells were wrapped in foil and kept overnight 4'C. The cells were then washed with 400 ul of AB staining solution for 5 min once to remove primary antibodies. Secondary antibody solutions were made (enough for 250 ul of each chamber) (Goat anti-mouse alexa 488 1:2000, anti-rabbit Cy3 (1:500), anti-chicken alexa 647 1:500, and 1:5000 Dapi). The cells were incubated at room temp for 1 hour in the dark and washed 2 time in AB staining solution for five mins. They were then kept at 4° C. or Imaged using a GE Cytell imager or LSM 710, Zeiss confocal microscope and analyze with ImageJ software(National Institutes of Health). Each marker expression was measured on collected images (integrated density measure in ImageJ) and normalized to DAPI fluorescence, marking all nuclei (integrated density measure). Octanoic Acid were labeled with neuronal beta-tubulin III (TuJ1), subsequent compounds were labeled with Microtubule-associated protein 2 (MAP2).

CCCCC/C=C\C/C=C\C/C=C\C/C=C\CCCC(=O)O [AA, arachidonic acid]
association of nutrient content of infant formula with myelination (myelin water fraction) over time in the brain [1]: an association with myelination (myelin water fraction) was observed

CCCCCCCC/C=C\CCCCCCCCCCCCCC(=O)O [Nervonic acid, Nervonic Acid]
astrocyte cell density ([2]; Nervonic acid high dose (Dose 3, 1 μm)): 0.7028 | Neuronal Cell density ([2]; Nervonic acid high dose (Dose 3, 1 μm), MAP2 normalized to DAPI): 0.5394 | astrocyte cell density ([2]; Nervonic acid low dose (Dose 1, 10 nM)): 0.6218 | Neuronal Cell density ([2]; Nervonic acid low dose (Dose 1, 10 nM), MAP2 normalized to DAPI): 0.4676 | astrocyte cell density ([2]; Nervonic acid med dose (Dose 2, 100 nM)): 0.7215 | Neuronal Cell density ([2]; Nervonic acid med dose (Dose 2, 100 nM), MAP2 normalized to DAPI): 0.5656

CCCCCCCC(=O)O [Octanoic acid, Octanoic Acid]
astrocyte cell density ([2]; Octanoic acid high dose (Dose 3, 250 μM)): 7.9 | Neuronal Cell density ([2]; Octanoic acid high dose (Dose 3, 250 μM), TuJ1 normalized to DAPI): 1.7 | astrocyte cell density ([2]; Octanoic acid low dose (Dose 1, 10 μM)): 3.7 | Neuronal Cell density ([2]; Octanoic acid low dose (Dose 1, 10 μM), TuJ1 normalized to DAPI): 1.2 | astrocyte cell density ([2]; Octanoic acid med dose (Dose 2, 50 μM)): 6.1 | Neuronal Cell density ([2]; Octanoic acid med dose (Dose 2, 50 μM), TuJ1 normalized to DAPI): 1.8

CCCCCCCCCCCCCCCCCC(=O)O [Stearic acid, Stearic Acid]
astrocyte cell density ([2]; Stearic acid high dose (Dose 3, 10 μM)): 0.85 | Neuronal Cell density ([2]; Stearic acid high dose (Dose 3, 10 μM), MAP2 normalized to DAPI): 0.64 | astrocyte cell density ([2]; Stearic acid low dose (Dose 1, 100 nM)): 0.68 | Neuronal Cell density ([2]; Stearic acid low dose (Dose 1, 100 nM), MAP2 normalized to DAPI): 0.54 | astrocyte cell density ([2]; Stearic acid med dose (Dose 2, 1 μm)): 0.81 | Neuronal Cell density ([2]; Stearic acid med dose (Dose 2, 1 μm), MAP2 normalized to DAPI): 0.66

[Ca+2] [calcium]
association of nutrient content of infant formula with myelination (myelin water fraction) over time in the brain [1]: an association with myelination (myelin water fraction) was observed

[Mg+2] [magnesium]
association of nutrient content of infant formula with myelination (myelin water fraction) over time in the brain [1]: an association with myelination (myelin water fraction) was observed

[P] [phosphorus]
association of nutrient content of infant formula with myelination (myelin water fraction) over time in the brain [1]: an association with myelination (myelin water fraction) was observed

[Zn] [zinc]
association of nutrient content of infant formula with myelination (myelin water fraction) over time in the brain [1]: an association with myelination (myelin water fraction) was observed

iron
association of nutrient content of infant formula with myelination (myelin water fraction) over time in the brain [1]: an association with myelination (myelin water fraction) was observed

phosphatidylcholine
association of nutrient content of infant formula with myelination (myelin water fraction) over time in the brain [1]: an association with myelination (myelin water fraction) was observed

phosphatidylinositol
association of nutrient content of infant formula with myelination (myelin water fraction) over time in the brain [1]: an association with myelination (myelin water fraction) was observed

vitamin B12
association of nutrient content of infant formula with myelination (myelin water fraction) over time in the brain [1]: an association with myelination (myelin water fraction) was observed
